From patent US20160038519A1, “ADMINISTRATION OF KARENITECIN FOR THE TREATMENT OF ADVANCED OVARIAN CANCER, INCLUDING CHEMOTHERAPY-RESISTANT AND/OR THE MUCINOUS ADENOCARCINOMA SUB-TYPES” (BioNumerik Pharmaceuticals, Inc., priority 2014, published 2016)
Read-outs that look alike come from different tables or passages of the source.

Tests used:
MDR-expressing sublines = settings: comparison studies; cited from earlier work
[1] = tested on: mucinous cell lines (JHOM2B, OMC3, and COV644); assay: SRB assay, joint statements for the mucinous cell lines incl. effect of BNP7787 on BNP1350-induced cytotoxicity; assay type: cell-based, human
Experimental: (§1) In vitro studies were conducted in human mucinous ovarian cancer cell lines including JHOM2B, OMC3, and COV644. In one series of experiments, the dose response curves for BNP1350 (also known as Karenitecin), SN-38 (Irinotecan), and Topotecan were obtained and IC50 values were determined. In a second series of experiments, the effect of BNP7787 (2,2′-dithio-bis-ethane sulfonate; Tavocept) on BNP1350-induced cytotoxicity at selected BNP1350 concentrations was examined.
The JHOM2B and OMC3 cell lines were purchased from Riken Cell Bank (Japan). The COV644 cell line was purchased from SigmaAldrich. Cells were maintained as monolayered cultures in T-75 flasks and then seeded to microtiter plate wells for experiments. Population doubling-times for these three cell lines were long (i.e., exceeding 40 hours, and for some of the cell lines approaching 96 hours); therefore, the Applicants conducted initial pilot experiments and determined optimal seeding density to obtain A570 values in untreated controls that would fall within the linear range of the SRB assay after seven (7) total days of cell growth. […]
The cells were manipulated in a Microzone laminar flow hood traditionally used for maintaining aseptic environments around automated instrumentation such as microplate robots, and the like. […] Cells were counted using a ViCell counter (Beckman-Coulter). An automated plate washer/stacker (ELx405/BioStak from BioTek Instruments) and a microplate reader (SpectraMax Plus from Molecular Devices) were used for conducting the SRB assay and determining A570 values for wells in the plates and the percentage of control values. Prior to SRB assays, cell viability was monitored by evaluation of microtiter plate wells. […]
The sulforhodamine B (SRB) cytotoxicity assay was used to assess cell survival. […] Plates were agitated (gently) for 5 minutes and the absorbance values of the SRB dye-protein adduct at 570 nanometers (A570) were determined using an automated microtiter plate reader (SpectraMax Plus, Molecular Devices). […]

[2] = tested on: human breast, ovarian and lymphoma cancer cell lines; assay: Paclitaxel induced apoptosis (PARP cleavage, Bcl-2 phosphorylation, DNA laddering); assay type: cell-based
Excerpt: (§2) Tavocept mediates the non-enzymatic xenobiotic modification of sulfur-containing amino acid residues (e.g., cysteine) on proteins. As an engineered, non-naturally occurring agent (i.e., xenobiotic), Tavocept is autocatalytic and requires no protein cofactor to cause the xenobiotic modification of cysteine, but appears to be specific for cysteine residues located within a particular structural context (i.e., not all cysteines in a protein are so modified). Tavocept-mediated, xenobiotic modification represents a novel mechanism of action for a cancer treating agent and can be compared, to a degree, with post-translational modifications of cysteine residues in proteins (see, Table 3, below). By way of non-limiting example, some of the important elements of Tavocept's effectiveness as a compound in the treatment of cancer are its selectivity for normal cells versus cancer cells and its absence of interference with the anti-cancer activity of cancer treating agents.

human cancer cell lines = assay: Paclitaxel- and platinum-induced cytotoxicity; assay type: cell-based
Excerpt: as §2

[3] = human, in vivo; cited from earlier work
JHOM2B Cell Line = assay: SRB cytotoxicity assay, JHOM2B; assay type: cell-based, human
Experimental: as §1
(§3) The JHOM2B and OMC3 cell lines were purchased from Riken Cell Bank (Japan). The COV644 cell line was purchased from SigmaAldrich. Cells were maintained as monolayered cultures in T-75 flasks and then seeded to microtiter plate wells for experiments. Population doubling-times for these three cell lines were long (i.e., exceeding 40 hours, and for some of the cell lines approaching 96 hours); therefore, the Applicants conducted initial pilot experiments and determined optimal seeding density to obtain A570 values in untreated controls that would fall within the linear range of the SRB assay after seven (7) total days of cell growth. JHOM2B cells were cultured in DMEM:F12 (1:1)+0.1 mM non-essential amino acids (NEAA)+10% FBS and were seeded at 6,000 cells per well. OMC3 cells were cultured in HamF12+10% FBS and were seeded at 8,000 cells per well. COV644 cells were cultured in DMEM+2 mM glutamine+10% FBS and were seeded at 6,000 cells per well.
(§4) The cells were manipulated in a Microzone laminar flow hood traditionally used for maintaining aseptic environments around automated instrumentation such as microplate robots, and the like. Cells were grown and maintained at 37° C. in a humidified atmosphere containing 5% CO2 in a water jacketed cell culture incubator (Forma Scientific). Cells were counted using a ViCell counter (Beckman-Coulter). An automated plate washer/stacker (ELx405/BioStak from BioTek Instruments) and a microplate reader (SpectraMax Plus from Molecular Devices) were used for conducting the SRB assay and determining A570 values for wells in the plates and the percentage of control values. Prior to SRB assays, cell viability was monitored by evaluation of microtiter plate wells. Dead cells detach and float while living cells remain attached to the bottom of the cell well.
(§5) SN-38 (Irinotecan; Sigma H0165, lot MKBQ4981) and Topotecan (Sigma T2705, lot 052M4728V) were purchased from SigmaAldrich. BNP1350 (lot KN-C192-135) and BNP7787 (lot 205001) were synthesized at BioNumerik Pharmaceuticals, Inc. (San Antonio, Tex.). BNP1350, SN38, and Topotecan were prepared as 2.5, 2.5, and 25 mM stocks in DMSO (ATCC, cell culture grade).
(§6) The sulforhodamine B (SRB) cytotoxicity assay was used to assess cell survival. Briefly, after the medium was decanted from individual plate wells, trichloroacetic acid (100 μL of 10.0 percent solution) was added to each well, and the plates were incubated at 4° C. for 1 hour. The plates were washed five times with water using an automated microplate washer (Model ELx405, Bio-Tek Instruments), SRB solution (100 μL of 0.4% SRB dissolved in 1.0 percent acetic acid) was added, and plates remained at room temperature for 15 minutes. The plates were then washed five times using acetic acid (1.0 percent), air dried, and bound dye was solubilized in Tris base (150 μL, 10 mM). Plates were agitated (gently) for 5 minutes and the absorbance values of the SRB dye-protein adduct at 570 nanometers (A570) were determined using an automated microtiter plate reader (SpectraMax Plus, Molecular Devices). IC50 values were extrapolated from dose response curves of the data using OriginLab Software.

OMC3 Cell Line = assay: SRB cytotoxicity assay, OMC3; assay type: cell-based, human
Experimental: as §1, §3, §4, §5, §6

COV644 Cell Line = assay: SRB cytotoxicity assay, COV644; assay type: cell-based, human; settings: 2, 5, and 6 hour drug exposures
Experimental: as §1, §3, §4, §5, §6
(§7) The 1050 values exceeded the solubility in medium for each compound—the limit of solubility in cell culture medium for the compounds were as follows: 2 micromolar for BNP1350 and SN38, and 20 micromolar for Topotecan. Cells were treated for periods of 2.5 hours or 6 hours and, in each case, the […] values were not reached. Longer treatments were not performed.

[4] = Limit of solubility in cell culture medium; assay type: physicochemical
Experimental: as §7

[5] = 2 hour drug exposure, read-out: IC50, Test 1 (2 replicate plates)
[6] = 2 hour drug exposure, read-out: IC50, Test 2 (3 replicate plates)

**Q.** Which “Resistance of MDR-expressing sublines relative to parental wild-type cells” value (MDR-expressing sublines) does the source give for CC[C@@]1(O)C(=O)OCc2c1cc1n(c2=O)Cc2cc3c(N)cccc3nc2-1 [9-aminocamptothecin, 9-amino-camptothecin] here?
**A.** two-fold more resistant

**Q.** With CC[C@@]1(O)C(=O)OCc2c1cc1n(c2=O)Cc2cc3cc4c(cc3nc2-1)OCO4 [10,11-methylenedioxycamptothecin] as the molecule, how does the “Resistance of MDR-expressing sublines relative to parental wild-type cells” value (MDR-expressing sublines) read?
**A.** No increase in resistance

**Q.** With O=S(=O)([O-])CCSSCCS(=O)(=O)[O-].[Na+].[Na+] [BNP7787, 2,2′-dithio-bis-ethane sulfonate] as the molecule, how does the “Effect on BNP1350-induced cytotoxicity” value ([1]; BNP7787 1 or 10 mM added simultaneously with approximate IC50 and IC25 values of BNP1350, each cell line) read?
**A.** no notable effect

**Q.** What about the “Effect on cell survival as single agent” value ([1]; BNP7787 alone, 1 and 10 mM) of the same molecule?
**A.** did not affect cell survival

**Q.** And the “Interference with paclitaxel induced apoptosis” value [2]?
**A.** does not interfere

**Q.** What about the “Interference with paclitaxel- and platinum-induced cytotoxicity” value (human cancer cell lines) of the same molecule?
**A.** not to interfere

**Q.** Which Subjects with neutropenia [3] does the source give for Nc1ccn([C@@H]2O[C@H](CO)[C@@H](O)C2(F)F)c(=O)n1 [Gemcitabine] here?
**A.** up to 90%

**Q.** Which results are given for CCc1c2c(nc3ccc(O)cc13)-c1cc3c(c(=O)n1C2)COC(=O)[C@]3(O)CC [SN38]?
**A.** IC50 (JHOM2B Cell Line; 2 hour drug exposure, average of Test 1 and Test 2, read-out: IC50, Average): 666 nM; IC50 (JHOM2B Cell Line; [5]): 610 ± 130 nM; IC50 (JHOM2B Cell Line; [6]): 723 ± 28 nM; IC50 (JHOM2B Cell Line; read-out: IC50 values): 667 nM; IC50 (OMC3 Cell Line; [5]): 550 ± 60 nM; IC50 (OMC3 Cell Line; [6]): 580 ± 127 nM; IC50 (OMC3 Cell Line; read-out: IC50 values): 565 nM; IC50 (COV644 Cell Line; did not reach 50% of Control, read-out: IC50, Test 1 (2 replicate plates)): > 2000 nM; IC50 (COV644 Cell Line; did not reach 50% of Control, read-out: IC50, Test 2 (2 to 3 replicate plates)): > 2000 nM; IC50 (COV644 Cell Line; read-out: IC50, Average): > 2000 nM; Limit of solubility in cell culture medium [4]: 2 µM
